Data on two molecules can be found in patent US20260297060A1, “COMPOUNDS FOR THE DEGRADATION OF MUTANT BRAF” (C4 THERAPEUTICS, INC., priority 2023, published 2026).

Structures are written as SMILES.

For one experiment, the system named is A375 cells. Description: A375 Cell Viability Assay (CTGlo), Example 16. The format is cell-based, human. As to conditions: 72 h, 10-point dose series, in words (FIG. 83). The protocol:
The effect of compounds of the invention on cell viability was assessed based on the quantification of ATP using the CellTiter-Glo® 2.0 (referred to here as CTGlo) Cell Viability Assay (Catalog No. G9243, Promega, Madison, WI, USA), which signals the presence of metabolically active cells.
A375 cells were obtained from ATCC (Catalog No. CRL-1619, Manassas, VA, USA) (also referred to here as A375.1) and were maintained in DMEM, (Corning, Catalog No. 10-017-CV, Glendale, AZ, USA) supplemented with 10% fetal bovine serum (FBS; Catalog No. 16000044, Gibco, Grand Island, NY, USA) at 37° C. in an atmosphere of 5% CO2 in air. The cells were routinely sub-cultured to maintain cell density between 3×10^5-1.5×10^6 cells/mL. […] An aliquot of cell suspension was diluted 2× with a 0.4% Trypan Blue solution (Catalog No. 15250061, ThermoFisher Scientific, Waltham, MA, USA) and cell count was determined. […]
Test compounds were prepared by dissolving neat compounds in dimethyl sulfoxide (DMSO; Catalog No. D8418, Sigma-Aldrich, Inc., St. Louis, MO, USA) to generate 10 mM stock solution and stored at −20° C. […] CellTiter-Glo® reagent was then added to the cells and luminescence signals were measured after 4 hours using an EnVision™ Multimode plate reader (Perkin Elmer, Santa Clara, CA). […]

In experiment [1] the test system is A375 human melanoma cancer cell derived xenografts, intracranial. Briefly: Example 12 efficacy study, intracranial A375-luciferase CNS model: survival. In kind it is in vivo, BALB/c nude mice. The following applies: 10 mg/kg PO/BID; for survival rate / mice that have demonstrated end point cut offs and were terminated: as of day 75; for median survival: dosing stopped on day 120, survival curve up to 200 days; for mice that have demonstrated end point cut offs and were terminated: groups of 8 mice. The protocol: For the efficacy study, agents were tested in A375 human melanoma cancer cell derived xenografts (CDX). This cell line was isolated from the primary melanoma of a person and is known to have a homozygous BRAF V600E mutation. The A375 tumor cells were maintained in vitro in DMEM medium supplemented with 10% fetal bovine serum and 1% Penicillin-Streptomycin at 37° C. in an atmosphere of 5% CO2 in air. The tumor cells were routinely subcultured twice weekly. The cells growing in an exponential growth phase were harvested and counted for tumor inoculation.
For this CNS study, A375 cells with a luciferase tag for tracking tumor cell signal, were injected intracranially into 6-8-week-old female BALB/c nude mice (Zhejiang Vital River Laboratory Animal Co., LTD. Beijing, China). The mice were anaesthetized, restrained, and sterilized prior to surgery. A sagittal cut was made above the anterior parietal and occipital bone with sterilized scalpel, the skull was unrevealed and cleaned with cotton bud, in this case the anterior fontanel could be available. A 2 mm hole was created to the right of the anterior fontanel and 0.5 mm ahead of the coronal on the skull with a cranial drill. Cell suspensions in 20% Matrigel were mixed and aspirated into injector carefully to avoid bubbles and wiped to avoid extracranial tumor genesis. The needle was inserted vertically into the cranial hole and the cell mixture was slowly injected for 2 minutes and held for another minute to decrease the drainage of the cell suspension. The wound was closed, and a subcutaneous injection of 5 mg/kg Meloxicam was given to relieve the pain and continued for 3 days. The mice were monitored closely until they woke up after the surgery. During the study, the care and use of animals was conducted in accordance with the regulations of the Association for Assessment and Accreditation of Laboratory Animal Care (AAALAC). After inoculation, the animals were checked daily for morbidity and mortality. At the time of routine monitoring, the animals would be checked for any effects of tumor growth and treatments on normal behavior such as mobility, food and water consumption, body weight gain/loss, eye/hair matting, and any other abnormal effect.
The administration of the test agents began three days after inoculation. CNS tumor-bearing mice were randomly assigned to groups of 8 mice and administered Compound 26 at 10 mg/kg orally (PO) twice a day (BID), Compound 141 at 10 mg/kg PO/BID, encorafenib at 35 mg/kg once a day orally, (PO/QD), or the vehicle alone PO/BID. Measurements for the presence of the A375 luciferase (CRL-1619-LUC2, ATCC, Manassas, VA, USA) cells within the CNS were done with IVIS Lumina III machine. Images were collected twice weekly to follow the growth of the models. The tumor-bearing mice were weighed and intraperitoneally administered luciferin (Perkin Elmer Inc-122799) at a dosage of 150 mg/kg. After 10 min, mice were pre-anesthetized with the mixture gas of oxygen and isoflurane. The bioluminescence value at 15 min post luciferin injection was recorded as the final value and plotted. The endpoint for individual mice was reached when the mouse body weight decreased by 20% when compared to their starting weight.

As to `CCN(C)S(=O)(=O)Nc1ccc(F)c(Oc2ccc3ncn([C@H]4COC5(CCN(C6CC7(C6)CN(c6cc8c(cc6F)c(N6CCC(=O)NC6=O)nn8C)C7)CC5)C4)c(=O)c3c2)c1C#N` [Compound 26, (3R)-3-[6-[2-cyano-3-[[ethyl(methyl)sulfamoyl]amino]-6-fluoro-phenoxy]-4-oxo-quinazolin-3-yl]-8-[2-[3-(2,4-dioxohexahydropyrimidin-1-yl)-5-fluoro-1-methyl-indazol-6-yl]-2-azaspiro[3.3]heptan-6-yl]-1-oxa-8-azaspiro[4.5]decane], the “impact on viability of A375 cells” value in the experiment with A375 cells is reported as “significant impact on the viability of A375 cells”. Moreover, in experiment [1], the survival rate is 75%; the median survival amounted to 91 days; the “mice that have demonstrated end point cut offs and were terminated” value is “two”.
Consider `CCN(C)S(=O)(=O)Nc1ccc(F)c(Oc2ccc3ncn(C4CC5(CCN(C6CC7(C6)CN(c6cc8c(cc6F)c(N6CCC(=O)NC6=O)nn8C)C7)CC5)C4)c(=O)c3c2)c1C#N` (centres unmarked) [Compound 141, 6-[2-cyano-3-[[ethyl(methyl)sulfamoyl]amino]-6-fluoro-phenoxy]-3-[7-[2-[3-(2,4-dioxohexahydropyrimidin-1-yl)-5-fluoro-1-methyl-indazol-6-yl]-2-azaspiro[3.3]heptan-6-yl]-7-azaspiro[3.5]nonan-2-yl]-4-oxo-quinazoline], for which, in the experiment with A375 cells, the “impact on viability of A375 cells” value is reported as “significant impact on the viability of A375 cells”. Also, in experiment [1], the survival rate was 75%; the median survival stood at 89.5 days; the “mice that have demonstrated end point cut offs and were terminated” value is reported as 2 mice.
